Data on 29 compounds can be found in patent publication US8440710B2, “HSL inhibitors useful in the treatment of diabetes” (Hoffmann-La Roche Inc., priority 2009, dated 2013).

The assay concerns the target T1, human HSL (Homo sapiens, UniProt Q05469).
T1 construct: generate a full length human HSL ORF with a 3′-His6 tag; made in house; host or cells: High 5 insect cells (baculovirus, pFast-BAC)
T1 sequence (Q05469 1-1076): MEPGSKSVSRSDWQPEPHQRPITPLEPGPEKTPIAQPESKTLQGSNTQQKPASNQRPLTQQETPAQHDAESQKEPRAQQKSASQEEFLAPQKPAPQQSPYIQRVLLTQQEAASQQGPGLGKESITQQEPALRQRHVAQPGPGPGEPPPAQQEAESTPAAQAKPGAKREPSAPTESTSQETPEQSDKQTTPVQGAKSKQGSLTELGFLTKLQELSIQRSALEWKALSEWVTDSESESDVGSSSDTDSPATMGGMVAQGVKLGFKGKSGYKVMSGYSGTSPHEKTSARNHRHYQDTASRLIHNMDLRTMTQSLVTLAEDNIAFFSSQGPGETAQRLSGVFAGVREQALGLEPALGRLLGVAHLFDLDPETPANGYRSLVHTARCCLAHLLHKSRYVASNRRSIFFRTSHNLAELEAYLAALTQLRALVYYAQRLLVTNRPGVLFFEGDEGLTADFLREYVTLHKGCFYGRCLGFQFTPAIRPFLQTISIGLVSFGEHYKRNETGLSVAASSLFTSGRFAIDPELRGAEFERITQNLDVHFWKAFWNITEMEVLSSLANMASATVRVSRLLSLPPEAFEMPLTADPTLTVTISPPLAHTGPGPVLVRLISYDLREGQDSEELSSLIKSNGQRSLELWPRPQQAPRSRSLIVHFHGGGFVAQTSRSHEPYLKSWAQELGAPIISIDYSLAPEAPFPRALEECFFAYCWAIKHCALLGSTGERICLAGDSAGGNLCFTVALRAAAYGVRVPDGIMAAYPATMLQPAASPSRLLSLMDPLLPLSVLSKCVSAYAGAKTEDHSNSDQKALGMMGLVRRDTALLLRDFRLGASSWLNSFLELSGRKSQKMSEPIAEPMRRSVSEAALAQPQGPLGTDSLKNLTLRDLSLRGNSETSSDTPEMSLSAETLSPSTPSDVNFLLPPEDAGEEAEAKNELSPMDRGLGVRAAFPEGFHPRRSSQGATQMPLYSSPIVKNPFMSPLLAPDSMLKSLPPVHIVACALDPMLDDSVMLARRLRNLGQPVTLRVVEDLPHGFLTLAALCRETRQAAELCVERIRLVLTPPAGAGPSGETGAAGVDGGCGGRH
In words: Human Hormone-Sensitive Lipase (HSL) enzyme inhibition assay (colorimetric, DMPT substrate). The assay is classed as biochemical. The settings on record: human full length HSL-His6, 2,3-dimercapto-1-propanol tributyrate substrate, 37° C. 20 minutes, absorbance at 405 nm; read-out: HSL hum IC50. Put shortly: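 Full-length human HSL with C-terminal His6, expressed in baculovirus-infected High 5 cells and Ni-NTA purified, was added (15 ug/ml stock) to 1.5 mM DMPT in 100 mM MOPS pH 7.2, 0.2 mg/ml fatty acid-free BSA containing compound. After 20 min at 37 °C, DTNB with SDS/Triton X-100 was added; A405 read after 15 min at RT.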

As usually defined, the IC50 is the concentration needed to halve the response being measured. As to `C[C@]1(O)CC[C@@]2(CCN(c3ccc(OCC(F)(F)F)cc3)C2=O)CC1` [Example 87, (5α,8β)-8-Hydroxy-8-methyl-2-[4-(2,2,2-trifluoro-ethoxy)-phenyl]-2-aza-spiro[4.5]decan-1-one], the IC50 was 3820 nM.
Consider `CC[C@]1(O)CC[C@]2(CCN(c3ccc(OCC(F)(F)F)cc3)C2=O)CC1` [Example 88, (5α,8α)-8-Ethyl-8-hydroxy-2-[4-(2,2,2-trifluoro-ethoxy)-phenyl]-2-aza-spiro[4.5]decan-1-one], for which the concentration for half-maximal inhibition (IC50) was found to be 42 nM.
Under `CC[C@]1(O)CC[C@@]2(CCN(c3ccc(OCC(F)(F)F)cc3)C2=O)CC1` [Example 89, (5α,8β)-8-Ethyl-8-hydroxy-2-[4-(2,2,2-trifluoro-ethoxy)-phenyl]-2-aza-spiro[4.5]decan-1-one] stands 3190 nM.
The figure for `COCCC[C@]1(O)CC[C@]2(CCN(c3ccc(OC(F)(F)F)cc3)C2=O)CC1` [Example 90, (5α,8α)-8-Hydroxy-8-(3-methoxy-propyl)-2-(4-trifluoromethoxy-phenyl)-2-aza-spiro[4.5]decan-1-one] is 23 nM.
On to `COCCC[C@]1(O)CC[C@@]2(CCN(c3ccc(OC(F)(F)F)cc3)C2=O)CC1` [Example 91, (5α,8β)-8-Hydroxy-8-(3-methoxy-propyl)-2-(4-trifluoromethoxy-phenyl)-2-aza-spiro[4.5]decan-1-one], for which the half-inhibitory concentration (IC50) stood at 896 nM.
Turning to `COCC#C[C@]1(O)CC[C@]2(CCN(c3ccc(CC(F)(F)F)cc3)C2=O)CC1` [Example 92, (5α,8α)-8-Hydroxy-8-(3-methoxy-prop-1-ynyl)-2-[4-(2,2,2-trifluoro-ethyl)-phenyl]-2-aza-spiro[4.5]decan-1-one], the concentration for half-maximal inhibition (IC50) was 30 nM.
Take `COCCC[C@]1(O)CC[C@]2(CCN(c3ccc(CC(F)(F)F)cc3)C2=O)CC1` [Example 93, (5α,8α)-8-Hydroxy-8-(3-methoxy-propyl)-2-[4-(2,2,2-trifluoro-ethyl)-phenyl]-2-aza-spiro[4.5]decan-1-one]: the 50% inhibitory concentration (IC50) amounted to 20 nM.
Under `CCC[C@]1(O)CC[C@]2(CCN(c3ccc(OCCCOC)cc3)C2=O)CC1` [Example 94, (5α,8α)-8-Hydroxy-2-[4-(3-methoxy-propoxy)-phenyl]-8-propyl-2-aza-spiro[4.5]decan-1-one] stands 80 nM; under `CCC[C@]1(O)CC[C@]2(CCN(c3ccc(OCCOC)cc3)C2=O)CC1` [Example 95, (5α,8α)-8-Hydroxy-2-[4-(2-methoxy-ethoxy)-phenyl]-8-propyl-2-aza-spiro[4.5]decan-1-one], 240 nM.
Under `CCCC[C@]1(O)CC[C@]2(CCN(c3ccc(OCCOC)cc3)C2=O)CC1` [Example 96, (5α,8α)-8-Butyl-8-hydroxy-2-[4-(2-methoxy-ethoxy)-phenyl]-2-aza-spiro[4.5]decan-1-one] stands 60 nM; under `CCCC[C@]1(O)CC[C@@]2(CCN(c3ccc(OCCOC)cc3)C2=O)CC1` [Example 97, (5α,8β)-8-Butyl-8-hydroxy-2-[4-(2-methoxy-ethoxy)-phenyl]-2-aza-spiro[4.5]decan-1-one], 1820 nM; under `O=C1N(c2ccc(OCCC(F)(F)F)cc2)CC[C@]12CC[C@@H](O)CC2` [Example 98, (5α,8β)-8-Hydroxy-2-[4-(3,3,3-trifluoro-propoxy)-phenyl]-2-aza-spiro[4.5]decan-1-one], 2500 nM.
As for `CCC[C@]1(O)CC[C@]2(CCN(c3ccc(OCCC(F)(F)F)cc3)C2=O)CC1` [Example 99, (5α,8α)-8-Hydroxy-8-propyl-2-[4-(3,3,3-trifluoro-propoxy)-phenyl]-2-aza-spiro[4.5]decan-1-one], the half-inhibitory concentration (IC50) is 30 nM.
With `CCC[C@]1(O)CC[C@@]2(CCN(c3ccc(OCCC(F)(F)F)cc3)C2=O)CC1` [Example 100, (5α,8β)-8-Hydroxy-8-propyl-2-[4-(3,3,3-trifluoro-propoxy)-phenyl]-2-aza-spiro[4.5]decan-1-one], the 50% inhibitory concentration (IC50) was found to be 360 nM.
The figure for `CCC[C@]1(O)CC[C@]2(CCN(c3ccc(C(C)C)nc3)C2=O)CC1` [Example 101, (5α,8α)-8-Hydroxy-2-(6-isopropylpyridin-3-yl)-8-propyl-2-aza-spiro[4.5]decan-1-one] is 110 nM; for `CC(C)c1ccc(N2CC[C@]3(CC[C@@](O)(C(C)C)CC3)C2=O)cn1` [Example 102, (5α,8α)-8-Hydroxy-8-isopropyl-2-(6-isopropylpyridin-3-yl)-2-aza-spiro[4.5]decan-1-one] it is 100 nM.
For `CC(C)[C@]1(O)CC[C@]2(CCN(c3ccc(OCC(F)(F)F)cc3)C2=O)CC1` [Example 103, (5α,8α)-8-Hydroxy-8-isopropyl-2-[4-(2,2,2-trifluoro-ethoxy)-phenyl]-2-aza-spiro[4.5]decan-1-one], the concentration for half-maximal inhibition (IC50) is 20 nM.
Consider `CCC[C@]1(O)CC[C@]2(CCN(c3ccc(OCC(F)(F)F)cc3)C2=O)CC1` [Example 104, 8-Hydroxy-8-propyl-2-[4-(2,2,2-trifluoro-ethoxy)-phenyl]-2-aza-spiro[4.5]decan-1-one], for which the IC50 was determined as 20 nM.
For the compound `C=C(C)[C@]1(O)CC[C@]2(CCN(c3ccc(OCC(F)(F)F)cc3)C2=O)CC1` [Example 105, (5α,8α)-8-Hydroxy-8-(prop-1-en-2-yl)-2-(4-(2,2,2-trifluoroethoxy)phenyl)-2-aza-spiro[4.5]decan-1-one], the IC50 was 30 nM.
For the compound `C=C(C)[C@]1(O)CC[C@@]2(CCN(c3ccc(OCC(F)(F)F)cc3)C2=O)CC1` [Example 106, (5α,8β)-8-Hydroxy-8-(prop-1-en-2-yl)-2-(4-(2,2,2-trifluoroethoxy)phenyl)-2-aza-spiro[4.5]decan-1-one], the half-inhibitory concentration (IC50) amounted to 1350 nM.
With `CC(C)[C@]1(O)CC[C@@]2(CCN(c3ccc(OCC(F)(F)F)cc3)C2=O)CC1` [Example 107, (5α,8β)-8-Hydroxy-8-isopropyl-2-(4-(2,2,2-trifluoroethoxy)phenyl)-2-aza-spiro[4.5]decan-1-one], the 50% inhibitory concentration (IC50) is 2030 nM.
As for `CC(C)[C@]1(O)CC[C@]2(CCN(c3ccc(OCC(F)(F)F)nc3)C2=O)CC1` [Example 108, (5α,8α)-8-Hydroxy-8-isopropyl-2-(6-(2,2,2-trifluoroethoxy)pyridin-3-yl)-2-aza-spiro[4.5]decan-1-one], the IC50 was determined as 20 nM.
On to `CC(C)[C@]1(O)CC[C@@]2(CCN(c3ccc(OCC(F)(F)F)nc3)C2=O)CC1` [Example 109, (5α,8β)-8-Hydroxy-8-isopropyl-2-(6-(2,2,2-trifluoroethoxy)pyridin-3-yl)-2-aza-spiro[4.5]decan-1-one], for which the half-inhibitory concentration (IC50) amounted to 2220 nM.
Under `COC[C@]1(O)CC[C@]2(CCN(c3ccc(OCC(F)(F)F)nc3)C2=O)CC1` [Example 110, (5α,8α)-8-Hydroxy-8-(methoxymethyl)-2-(6-(2,2,2-trifluoroethoxy)pyridin-3-yl)-2-aza-spiro[4.5]decan-1-one] stands 190 nM; under `CC#C[C@]1(O)CC[C@]2(CCN(c3ccc(OCC(F)(F)F)cc3)C2=O)CC1` [Example 111, (5α,8α)-8-Hydroxy-8-prop-1-ynyl-2-[4-(2,2,2-trifluoro-ethoxy)phenyl]-2-aza-spiro[4.5]decan-1-one], 100 nM.
Turning to `O=C1N(c2ccc(OC(F)(F)F)cc2)CC[C@]12CC[C@@](O)(C(F)(F)F)CC2` [Example 112, (5α,8α)-8-Hydroxy-2-(4-trifluoromethoxy-phenyl)-8-trifluoromethyl-2-aza-spiro[4.5]decan-1-one], the IC50 is 20 nM.
Under `O=C1N(c2ccc(OC(F)(F)F)cc2)CC[C@]12CC[C@](O)(C(F)(F)F)CC2` [Example 113, (5α,8β)-8-Hydroxy-2-(4-trifluoromethoxy-phenyl)-8-trifluoromethyl-2-aza-spiro[4.5]decan-1-one] stands 2180 nM; under `COC[C@]1(O)CC[C@]2(CCN(c3ccc(OC(F)(F)F)cc3)C2=O)CC1` [Example 114, (5α,8α)-8-Hydroxy-8-methoxymethyl-2-(4-trifluoromethoxy-phenyl)-2-aza-spiro[4.5]decan-1-one], 30 nM.
As for `COC[C@]1(O)CC[C@@]2(CCN(c3ccc(OC(F)(F)F)cc3)C2=O)CC1` [Example 115, (5α,8β)-8-Hydroxy-8-methoxymethyl-2-(4-trifluoromethoxy-phenyl)-2-aza-spiro[4.5]decan-1-one], the IC50 was found to be 680 nM.
